Patent publication US11001590B2, “Pyrazolopyrimidine derivatives” (BAYER ANIMAL HEALTH GMBH, priority 2016, dated 2021)

How the values were obtained:
C. elegans Slo-1a = C. elegans Slo-1a (Caenorhabditis elegans, UniProt Q95V25); assay: In vitro assay 1: C. elegans Slo-1a, action at a recombinant C. elegans CHO cell line (membrane potential measurement)
Procedure: In Vitro Assay 1: C. Eleqans Slo-La—Action at a Recombinant C. elegans Cell Line
Cells were cultured at 37° C. and 5% CO2 in MEMalpha with Gutamax I (Invitrogen, Nr.: 32571), supplemented with 10% (v/v) heat inactivated fetal bovine serum (Invitrogen, Nr.: 10500), G418 (1 mg/ml, Invitrogen, Nr.: 10131). Cells were detached using Accutase (Sigma, Nr.: A6964).
Membrane Potential Measurements
Laboratory compound testing was performed on 384-well microtiter plates (MTPs, Greiner, Nr.: 781092). 8000 cells/well were plated onto 384-well MTPs and cultured for 20 to 24 hours at 37° C. and 5% CO2. After removal of the cell culture medium, the cells were washed once with tyrode (150 mM NaCl, 0.3 mM KCl, 2 mM CaCl2, 1 mM MgCl2, 0.8 mM NaH2PO4, 5 mM Glucose, 28 mM Hepes, pH 7.4) and then loaded with the voltage sensitive dye of the Membrane Potential Assay Kit diluted in tyrode for 1 h at room temperature.
After starting the measurement of fluorescence using a FLIPR Tetra (Molecular Devices, Exc. 510-545 nm, Emm. 565-625 nm), test compounds were added followed by the addition of KCl tyrode (final assay concentration: 70 mM KCl, 2 mM CaCl2, 1 mM MgCl2, 0.8 mM NaH2PO4, 5 mM Glucose, 28 mM Hepes, pH 7.4, including the voltage sensitive dye). The measurement was completed after 7 minutes.

[1] = log P by HPLC on reversed phase columns (Method L0; [a] acidic, [b] neutral range)
Procedure: Calibration was done with straight-chain alkan-2-ones (with 3 to 16 carbon atoms) with known log P values (measurement of log P values using retention times with linear interpolation between successive alkanones). Lambda-max-values were determined using UV-spectra from 200 nm to 400 nm and the peak values of the chromatographic signals.

[2] = tested on: Dirofilaria immitis microfilariae; assay: In vitro assay 3: Dirofilaria immitis microfilariae (DIROIM L1), motility; conditions: 72 h, reduction of motility vs negative control, 72 h incubation

C. elegans Slo-1a, sequence (Q95V25 whole entry): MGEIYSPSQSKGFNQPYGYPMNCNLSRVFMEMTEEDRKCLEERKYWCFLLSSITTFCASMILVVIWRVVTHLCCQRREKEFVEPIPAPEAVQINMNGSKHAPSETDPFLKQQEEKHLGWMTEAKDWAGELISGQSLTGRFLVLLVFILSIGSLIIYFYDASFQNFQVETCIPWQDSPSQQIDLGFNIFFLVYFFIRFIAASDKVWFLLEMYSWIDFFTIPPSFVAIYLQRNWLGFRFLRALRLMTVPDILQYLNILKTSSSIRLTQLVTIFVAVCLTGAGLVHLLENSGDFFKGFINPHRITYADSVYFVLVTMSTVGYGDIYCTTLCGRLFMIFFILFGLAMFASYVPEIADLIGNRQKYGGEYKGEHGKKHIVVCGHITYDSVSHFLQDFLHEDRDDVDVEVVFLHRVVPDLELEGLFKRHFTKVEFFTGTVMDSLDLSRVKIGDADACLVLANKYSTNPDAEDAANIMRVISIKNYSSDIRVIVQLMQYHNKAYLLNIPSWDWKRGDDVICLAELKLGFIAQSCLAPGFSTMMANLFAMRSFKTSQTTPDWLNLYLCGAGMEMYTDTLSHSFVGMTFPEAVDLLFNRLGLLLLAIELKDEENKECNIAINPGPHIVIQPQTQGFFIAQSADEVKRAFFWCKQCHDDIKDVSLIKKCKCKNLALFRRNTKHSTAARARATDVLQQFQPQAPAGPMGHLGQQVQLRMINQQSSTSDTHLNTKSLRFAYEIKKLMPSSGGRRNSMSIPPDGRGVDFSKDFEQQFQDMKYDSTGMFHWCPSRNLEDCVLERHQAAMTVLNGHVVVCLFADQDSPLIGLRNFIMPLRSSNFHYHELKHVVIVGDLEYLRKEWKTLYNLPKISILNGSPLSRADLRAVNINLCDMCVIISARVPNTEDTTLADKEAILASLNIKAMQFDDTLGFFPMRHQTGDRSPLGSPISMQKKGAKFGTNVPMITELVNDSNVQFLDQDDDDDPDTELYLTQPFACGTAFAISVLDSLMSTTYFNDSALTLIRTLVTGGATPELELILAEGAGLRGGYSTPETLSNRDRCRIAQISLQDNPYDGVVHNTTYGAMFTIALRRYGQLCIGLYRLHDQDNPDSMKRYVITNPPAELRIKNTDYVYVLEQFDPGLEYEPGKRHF

Cc1nn2c(C(C)C)c(C(=O)N[C@H]3CCCc4ccccc43)cnc2c1-c1ccc(F)cc1 [Example 343]
EC50 (C. elegans Slo-1a): 20 nM | chromatographic logP [1]: 4.95 | EC50 [2]: < 10 µg/mL

CC(C)c1c(C(=O)N[C@H]2CCc3ccccc32)cnc2c(-c3cccc(C(F)(F)F)c3)c(C(F)F)nn12 [Example 433]
EC50 (C. elegans Slo-1a): 10 nM | chromatographic logP [1]: 5.03 | EC50 [2]: < 10 µg/mL

CCCOCc1cccc(-c2c(C)nn3c(C(C)C)c(C(=O)N[C@H]4CCc5ccccc54)cnc23)c1 [Example 390]
EC50 (C. elegans Slo-1a): 39.8 nM | chromatographic logP [1]: 5.4 | EC50 [2]: < 10 µg/mL

Cc1nn2c(C(C)C)c(C(=O)N[C@H]3CCc4ccccc43)cnc2c1-c1cccc(OC(C)C)c1 [Example 321]
EC50 (C. elegans Slo-1a): 10 nM | chromatographic logP [1]: 5.28 | EC50 [2]: < 1 µg/mL

Cc1nn2c(C(C)C)c(C(=O)N[C@H]3CCc4ccccc43)cnc2c1-c1cccc(COCC2CC2)c1 [Example 389]
EC50 (C. elegans Slo-1a): 251 nM | chromatographic logP [1]: 5.24 | EC50 [2]: < 10 µg/mL

Cc1nn2c(C3CC3)c(C(=O)N[C@H]3CCOc4ccccc43)cnc2c1-c1ccc(F)c(F)c1 [Example 471]
EC50 (C. elegans Slo-1a): 3.98 nM | chromatographic logP [1]: 3.86 | EC50 [2]: < 0.1 µg/mL

Cc1nn2c(C3CC3)c(C(=O)N[C@H]3CCc4ccccc43)cnc2c1-c1cccc(C(F)(F)F)c1 [Example 304]
EC50 (C. elegans Slo-1a): 20 nM | chromatographic logP [1]: 4.55 | EC50 [2]: < 1 µg/mL

Cc1nn2c(C(C)C)c(C(=O)N[C@H]3CCc4ccccc43)cnc2c1-c1cccc(CN2CCOCC2)c1 [Example 354]
EC50 (C. elegans Slo-1a): 398 nM | chromatographic logP [1]: 2.01 | EC50 [2]: < 10 µg/mL

CC(C)c1c(C(=O)N[C@H]2CCOc3ccccc32)cnc2c(-c3cc(Cl)cc(Cl)c3)c(C(F)(F)F)nn12 [Example 196]
EC50 (C. elegans Slo-1a): 50.1 nM | chromatographic logP [1]: 5.84 | EC50 [2]: < 10 µg/mL

Cc1nn2c(C3CC3)c(C(=O)N[C@H]3CCOc4ccccc43)cnc2c1-c1cccc(N2CC(F)(F)C2)c1 [Example 464]
EC50 (C. elegans Slo-1a): 3.16 nM | chromatographic logP [1]: 3.92 | EC50 [2]: < 0.1 µg/mL

Cc1nn2c(C(C)C)c(C(=O)N[C@H]3CCCc4ccccc43)cnc2c1-c1ccc(Cl)cc1Cl [Example 182]
EC50 (C. elegans Slo-1a): 12.6 nM | chromatographic logP [1]: 5.59 | EC50 [2]: < 1 µg/mL

Cc1nn2c(C(C)C)c(C(=O)N[C@H]3CCc4ccccc43)cnc2c1-c1cccc(NC(=O)C(F)(F)F)c1 [Example 315]
EC50 (C. elegans Slo-1a): 251 nM | chromatographic logP [1]: 4.28 | EC50 [2]: < 1 µg/mL

Cc1nn2c(C3CC3)c(C(=O)N[C@H]3CCc4ccccc43)cnc2c1-c1cccc(N2CC(F)(F)C2)c1 [Example 441]
EC50 (C. elegans Slo-1a): 10 nM | chromatographic logP [1]: 4.16 | EC50 [2]: < 1 µg/mL

Cc1nn2c(C(C)C)c(C(=O)N[C@H]3CCc4ccccc43)cnc2c1-c1ccc(C(F)(F)F)cc1 [Example 332]
EC50 (C. elegans Slo-1a): 15.8 nM | chromatographic logP [1]: 5.32 | EC50 [2]: < 1 µg/mL

Cc1nn2c(C(C)C)c(C(=O)N[C@H]3CCOc4ccccc43)cnc2c1-c1cc(O)c(F)c(F)c1 [Example 259]
EC50 (C. elegans Slo-1a): 15.8 nM | chromatographic logP [1]: 3.61 | EC50 [2]: < 1 µg/mL

CCS(=O)(=O)c1nn2c(C(C)C)c(C(=O)N[C@H]3CCOc4ccccc43)cnc2c1-c1cc(Cl)cc(Cl)c1 [Example 212]
EC50 (C. elegans Slo-1a): 501 nM | chromatographic logP [1]: 4.37 | EC50 [2]: < 10 µg/mL

Cc1nn2c(C3CC3)c(C(=O)N[C@H]3CCc4ccccc43)cnc2c1-c1cnn(CC2CC2)c1 [Example 446]
EC50 (C. elegans Slo-1a): 12.6 nM | chromatographic logP [1]: 3.15 | EC50 [2]: < 10 µg/mL

CC(C)c1c(C(=O)N[C@H]2CCc3ccccc32)cnc2c(-c3cc(Cl)cc(C(F)(F)F)c3)c(C(F)(F)F)nn12 [Example 150]
EC50 (C. elegans Slo-1a): 50.1 nM | chromatographic logP [1]: 6.22 | EC50 [2]: < 10 µg/mL

Cc1nn2c(C(C)C)c(C(=O)N[C@H]3CCCc4ccccc43)cnc2c1-c1cccc(OC(F)(F)F)c1 [Example 345]
EC50 (C. elegans Slo-1a): 12.6 nM | chromatographic logP [1]: 5.82 | EC50 [2]: < 1 µg/mL

COCc1cccc(-c2c(C(F)(F)F)nn3c(C(C)C)c(C(=O)N[C@H]4CCOc5ccccc54)cnc23)c1 [Example 142]
EC50 (C. elegans Slo-1a): 79.4 nM | chromatographic logP [1]: 4.6 | EC50 [2]: < 10 µg/mL
